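Test compounds were applied to cells in 96-well plates for 48 hours at 5 doses. GI50 = concentration required for 50% inhibition of growth. TGI: total growth inhibition.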
Experiments:
Assay in all cases: DTP human tumour cell line panel, 48 h
786-0 renal = system: 786-0 renal
A498 renal = system: A498 renal
A549 NSCLC = system: A549 NSCLC
ACHN renal = system: ACHN renal
BT-549 breast = system: BT-549 breast
CCRF-CEM leukemia = system: CCRF-CEM leukemia
COLO 205 colon = system: COLO 205 colon
EKVX NSCLC = system: EKVX NSCLC
HCC-2998 colon = system: HCC-2998 colon
HCT-116 colon = system: HCT-116 colon
HCT-15 colon = system: HCT-15 colon
HOP-62 NSCLC = system: HOP-62 NSCLC
HOP-92 NSCLC = system: HOP-92 NSCLC
HS 578T breast = system: HS 578T breast
HT29 colon = system: HT29 colon
IGROV1 ovarian = system: IGROV1 ovarian
KM12 colon = system: KM12 colon
LOX IMVI melanoma = system: LOX IMVI melanoma
M14 melanoma = system: M14 melanoma
MALME-3M melanoma = system: MALME-3M melanoma
MCF7 breast = system: MCF7 breast
MDA-MB-231 breast = system: MDA-MB-231 breast
MDA-MB-435 = system: MDA-MB-435
NCI-H226 lung = system: NCI-H226 lung
NCI-H23 lung = system: NCI-H23 lung
NCI-H522 lung = system: NCI-H522 lung
NCI/ADR-RES ovarian = system: NCI/ADR-RES ovarian
OVCAR-3 ovarian = system: OVCAR-3 ovarian
OVCAR-4 ovarian = system: OVCAR-4 ovarian
OVCAR-5 ovarian = system: OVCAR-5 ovarian
OVCAR-8 ovarian = system: OVCAR-8 ovarian
PC-3 prostate = system: PC-3 prostate
RPMI-8226 leukemia = system: RPMI-8226 leukemia
RXF 393 renal = system: RXF 393 renal
SF-268 CNS = system: SF-268 CNS
SF-295 CNS = system: SF-295 CNS
SF-539 CNS = system: SF-539 CNS
SK-MEL-2 melanoma = system: SK-MEL-2 melanoma
SK-MEL-28 melanoma = system: SK-MEL-28 melanoma
SK-MEL-5 melanoma = system: SK-MEL-5 melanoma
SK-OV-3 ovarian = system: SK-OV-3 ovarian
SN12C renal = system: SN12C renal
SNB-19 CNS = system: SNB-19 CNS
SNB-75 CNS = system: SNB-75 CNS
SR leukemia = system: SR leukemia
T-47D breast = system: T-47D breast
TK-10 renal = system: TK-10 renal
U251 CNS = system: U251 CNS
UACC-257 melanoma = system: UACC-257 melanoma
UACC-62 melanoma = system: UACC-62 melanoma
UO-31 renal = system: UO-31 renal
CAKI-1 renal = system: CAKI-1 renal
DU-145 prostate = system: DU-145 prostate
HL-60(TB) leukemia = system: HL-60(TB) leukemia
K-562 leukemia = system: K-562 leukemia
MOLT-4 leukemia = system: MOLT-4 leukemia
NCI-H460 lung = system: NCI-H460 lung
SW-620 colon = system: SW-620 colon

Cc1cc(N(CCCNc2ccnc3cc(Cl)ccc23)Cc2ccc3c(c2)OCO3)nc(N2CCCCC2)n1
GI50 (786-0 renal): 1.57 µM
TGI (786-0 renal): 3.09 µM
GI50 (A498 renal): 2.14 µM
TGI (A498 renal): 5.11 µM
GI50 (A549 NSCLC): 2.62 µM
TGI (A549 NSCLC): 7.37 µM
GI50 (ACHN renal): 2.32 µM
TGI (ACHN renal): 4.84 µM
GI50 (BT-549 breast): 2.28 µM
TGI (BT-549 breast): 5.95 µM
GI50 (CCRF-CEM leukemia): 2.92 µM
TGI (CCRF-CEM leukemia): > 100 µM
GI50 (COLO 205 colon): 1.66 µM
TGI (COLO 205 colon): 3.33 µM
GI50 (EKVX NSCLC): 2.56 µM
TGI (EKVX NSCLC): 38 µM
GI50 (HCC-2998 colon): 2.09 µM
TGI (HCC-2998 colon): 4.79 µM
GI50 (HCT-116 colon): 1.35 µM
TGI (HCT-116 colon): 3.28 µM
GI50 (HCT-15 colon): 1.42 µM
TGI (HCT-15 colon): 3.05 µM
GI50 (HOP-62 NSCLC): 1.74 µM
TGI (HOP-62 NSCLC): 5.17 µM
GI50 (HOP-92 NSCLC): 1.12 µM
TGI (HOP-92 NSCLC): 3.49 µM
GI50 (HS 578T breast): 1.78 µM
TGI (HS 578T breast): 4.25 µM
GI50 (HT29 colon): 1.2 µM
TGI (HT29 colon): 3.02 µM
GI50 (IGROV1 ovarian): 1.58 µM
TGI (IGROV1 ovarian): 3.87 µM
GI50 (KM12 colon): 2.15 µM
TGI (KM12 colon): 5.39 µM
GI50 (LOX IMVI melanoma): 1.69 µM
TGI (LOX IMVI melanoma): 3.29 µM
GI50 (M14 melanoma): 1.77 µM
TGI (M14 melanoma): 3.47 µM
GI50 (MALME-3M melanoma): 1.97 µM
TGI (MALME-3M melanoma): 3.75 µM
GI50 (MCF7 breast): 1.77 µM
TGI (MCF7 breast): 4.84 µM
GI50 (MDA-MB-231 breast): 1.88 µM
TGI (MDA-MB-231 breast): 4.06 µM
GI50 (MDA-MB-435): 1.72 µM
TGI (MDA-MB-435): 3.27 µM
GI50 (NCI-H226 lung): 4.03 µM
TGI (NCI-H226 lung): 20.5 µM
GI50 (NCI-H23 lung): 2.67 µM
TGI (NCI-H23 lung): 13.3 µM
GI50 (NCI-H522 lung): 1.89 µM
TGI (NCI-H522 lung): 4.19 µM
GI50 (NCI/ADR-RES ovarian): 2.43 µM
TGI (NCI/ADR-RES ovarian): 8.03 µM
GI50 (OVCAR-3 ovarian): 1.63 µM
TGI (OVCAR-3 ovarian): 3.19 µM
GI50 (OVCAR-4 ovarian): 1.93 µM
TGI (OVCAR-4 ovarian): 6.45 µM
GI50 (OVCAR-5 ovarian): 2.44 µM
TGI (OVCAR-5 ovarian): 7.04 µM
GI50 (OVCAR-8 ovarian): 2.1 µM
TGI (OVCAR-8 ovarian): 4.95 µM
GI50 (PC-3 prostate): 2.1 µM
TGI (PC-3 prostate): 5.38 µM
GI50 (RPMI-8226 leukemia): 1.91 µM
TGI (RPMI-8226 leukemia): 4.93 µM
GI50 (RXF 393 renal): 1.52 µM
TGI (RXF 393 renal): 3.12 µM
GI50 (SF-268 CNS): 2.33 µM
TGI (SF-268 CNS): 6.21 µM
GI50 (SF-295 CNS): 1.59 µM
TGI (SF-295 CNS): 3.39 µM
GI50 (SF-539 CNS): 1.82 µM
TGI (SF-539 CNS): 3.36 µM
GI50 (SK-MEL-2 melanoma): 1.94 µM
TGI (SK-MEL-2 melanoma): 3.77 µM
GI50 (SK-MEL-28 melanoma): 1.94 µM
TGI (SK-MEL-28 melanoma): 3.66 µM
GI50 (SK-MEL-5 melanoma): 1.75 µM
TGI (SK-MEL-5 melanoma): 3.14 µM
GI50 (SK-OV-3 ovarian): 2.74 µM
TGI (SK-OV-3 ovarian): 8.46 µM
GI50 (SN12C renal): 2.87 µM
TGI (SN12C renal): 12 µM
GI50 (SNB-19 CNS): 3.47 µM
TGI (SNB-19 CNS): 15.1 µM
GI50 (SNB-75 CNS): 1.47 µM
TGI (SNB-75 CNS): 3.33 µM
GI50 (SR leukemia): 1.41 µM
TGI (SR leukemia): 4.14 µM
GI50 (T-47D breast): 1.99 µM
TGI (T-47D breast): 4.82 µM
GI50 (TK-10 renal): 1.91 µM
TGI (TK-10 renal): 4.01 µM
GI50 (U251 CNS): 2.06 µM
TGI (U251 CNS): 4.65 µM
GI50 (UACC-257 melanoma): 2.2 µM
TGI (UACC-257 melanoma): 4.22 µM
GI50 (UACC-62 melanoma): 1.91 µM
TGI (UACC-62 melanoma): 3.64 µM
GI50 (UO-31 renal): 1.25 µM
TGI (UO-31 renal): 2.82 µM

CCCCCN(CCCCC)CC(C)(C)C(O)c1ccc(OC)c2ccccc12 (stereo not drawn)
TGI (786-0 renal): 35.7 µM
TGI (A498 renal): 28.1 µM
TGI (A549 NSCLC): 21.1 µM
TGI (ACHN renal): 27.2 µM
TGI (CAKI-1 renal): 28 µM
TGI (CCRF-CEM leukemia): > 100 µM
TGI (COLO 205 colon): 40.6 µM
TGI (DU-145 prostate): 28.2 µM
TGI (EKVX NSCLC): 25.9 µM
TGI (HCC-2998 colon): 31.4 µM
TGI (HCT-116 colon): 61.9 µM
TGI (HCT-15 colon): 21 µM
TGI (HL-60(TB) leukemia): 20.7 µM
TGI (HOP-62 NSCLC): > 100 µM
TGI (HOP-92 NSCLC): 12.7 µM
TGI (HS 578T breast): 39.8 µM
TGI (HT29 colon): 16.5 µM
TGI (IGROV1 ovarian): 14.3 µM
TGI (K-562 leukemia): 25 µM
TGI (KM12 colon): 25.4 µM
TGI (LOX IMVI melanoma): 4.99 µM
TGI (M14 melanoma): 21.7 µM
TGI (MALME-3M melanoma): 29.9 µM
TGI (MCF7 breast): 22.5 µM
TGI (MDA-MB-231 breast): 31.2 µM
TGI (MDA-MB-435): 29.8 µM
TGI (MOLT-4 leukemia): 76.9 µM
TGI (NCI-H226 lung): 33.6 µM
TGI (NCI-H23 lung): 32.3 µM
TGI (NCI-H460 lung): 24.9 µM
TGI (NCI-H522 lung): 20.3 µM
TGI (NCI/ADR-RES ovarian): 26.3 µM
TGI (OVCAR-3 ovarian): 26 µM
TGI (OVCAR-4 ovarian): 27.9 µM
TGI (OVCAR-5 ovarian): 31.4 µM
TGI (OVCAR-8 ovarian): 22.9 µM
TGI (PC-3 prostate): 26.4 µM
TGI (RPMI-8226 leukemia): 32.1 µM
TGI (RXF 393 renal): 24.1 µM
TGI (SF-268 CNS): 31.5 µM
TGI (SF-295 CNS): 29.7 µM
TGI (SF-539 CNS): 17.6 µM
TGI (SK-MEL-2 melanoma): 32.7 µM
TGI (SK-MEL-28 melanoma): 24.5 µM
TGI (SK-MEL-5 melanoma): 12.8 µM
TGI (SN12C renal): 25.2 µM
TGI (SNB-19 CNS): 28 µM
TGI (SNB-75 CNS): 51.9 µM
TGI (SR leukemia): 11.3 µM
TGI (SW-620 colon): 27.3 µM
TGI (T-47D breast): 21.1 µM
TGI (TK-10 renal): 25.6 µM
TGI (U251 CNS): 22.7 µM
TGI (UACC-257 melanoma): 26.1 µM
TGI (UACC-62 melanoma): 25.6 µM
TGI (UO-31 renal): 8.93 µM

Reference: PubChem BioAssay (NCI)
